What was measured:
Honeybee [1] = assay: Ecotoxicity: honeybee, chronic oral; format: in vivo
Excerpt: (§1) The ecotoxicity of flumetylsulforim was investigated in numerous studies in accordance with the strict requirements for the approval of active substances in the EU.

Rabbit = assay: Ecotoxicity: mammals, long-term; format: in vivo
Excerpt: as §1

Honeybee [2] = assay: Ecotoxicity: honeybee, chronic larvae; format: in vivo
Excerpt: as §1

Honeybee [3] = assay: Ecotoxicity: honeybee, acute oral; format: in vivo
Excerpt: as §1

Ryegrass [4] = assay: Non-target terrestrial plants, seedling emergence; format: in vivo
Excerpt: as §1

Common oat [5] = assay: Non-target terrestrial plants, seedling emergence; format: in vivo
Excerpt: as §1

Sunflower [6] = assay: Non-target terrestrial plants, seedling emergence; format: in vivo
Excerpt: as §1

Oil seed rape [7] = assay: Non-target terrestrial plants, seedling emergence; format: in vivo
Excerpt: as §1

Maize [8] = assay: Non-target terrestrial plants, seedling emergence; format: in vivo
Excerpt: as §1

Soybean [9] = assay: Non-target terrestrial plants, seedling emergence; format: in vivo
Excerpt: as §1

Sugar beet [10] = assay: Non-target terrestrial plants, seedling emergence; format: in vivo
Excerpt: as §1

Onion [11] = assay: Non-target terrestrial plants, seedling emergence; format: in vivo
Excerpt: as §1

Carrot [12] = assay: Non-target terrestrial plants, seedling emergence; format: in vivo
Excerpt: as §1

Cucumber [13] = assay: Non-target terrestrial plants, seedling emergence; format: in vivo
Excerpt: as §1

Phytophtora infestans = format: in vivo; conditions: potato; 150 g ai/ha vs CUPRIZOL S 330 g ai/ha
Green alga = assay: Ecotoxicity: algae, long-term; format: in vivo; conditions: wheats and barley at 2 × 100 g/ha
Excerpt: as §1

[14] = Ecotoxicity: algae, long-term; format: in vivo; conditions: in vivo, Green alga
Excerpt: as §1

Ryegrass [15] = assay: Non-target terrestrial plants, vegetative vigour; format: in vivo
Excerpt: as §1

Common oat [16] = assay: Non-target terrestrial plants, vegetative vigour; format: in vivo
Excerpt: as §1

Sunflower [17] = assay: Non-target terrestrial plants, vegetative vigour; format: in vivo
Excerpt: as §1

Oil seed rape [18] = assay: Non-target terrestrial plants, vegetative vigour; format: in vivo
Excerpt: as §1

Maize [19] = assay: Non-target terrestrial plants, vegetative vigour; format: in vivo
Excerpt: as §1

Soybean [20] = assay: Non-target terrestrial plants, vegetative vigour; format: in vivo
Excerpt: as §1

Sugar beet [21] = assay: Non-target terrestrial plants, vegetative vigour; format: in vivo
Excerpt: as §1

Onion [22] = assay: Non-target terrestrial plants, vegetative vigour; format: in vivo
Excerpt: as §1

Carrot [23] = assay: Non-target terrestrial plants, vegetative vigour; format: in vivo
Excerpt: as §1

Cucumber [24] = assay: Non-target terrestrial plants, vegetative vigour; format: in vivo
Excerpt: as §1

[25] = test system: Colletotrichum dematium var. truncatum; assay: Pot trial, Colletotrichum dematium var. truncatum on soybean; format: in vivo; conditions: 50-200 g ai/ha
Description: The inoculation of Corynespora cassiicola and Colletotrichum dematium var. truncatum is done with infected leaves from the field few days after the application.
To test for fungicidal control against the two necrotrophic diseases, the soybean plants, grown in pots, are sprayed at V2 with each of the above treatments. 5 pots with 3 soybean plants each are considered, each treatment counts for 4 replicates.
Between 14 and 21 days from the inoculation the severity (%) of the infection is assessed.

Bobwhite quail [26] = assay: Ecotoxicity: birds, acute; format: in vivo
Excerpt: as §1

Rainbow trout = assay: Ecotoxicity: fish, long-term; format: in vivo
Excerpt: as §1

Bobwhite quail [27] = assay: Ecotoxicity: birds, reproduction; format: in vivo
Excerpt: as §1

Rat = assay: Ecotoxicity: mammals, acute; format: in vivo
Excerpt: as §1

M. fijiensis = assay: Black sigatoka on banana plants in climatic chamber; format: in vivo, Mycosphaerella fijiensis
Description: The banana plants used for this experimentation were obtained from vitro-plants Cavendish type furnished by VITROPIC S.A. (France). One-month old plants (2 fully deployed leaves: F2 (oldest leaf) and F1 and the cigar leaf) are treated (see details in the table below) were inoculated with a calibrated mycelial seed-inoculum of a mixture of 4 M. fijiensis strains (for each treatment, 3 repetitions (banana plants) are considered). Banana leaves of each plant were treated on their upper (adaxial) and lower (abaxial) face and then incubated for one hour under a laminar flow in order to let dry the fungicide droplets. After inoculation, banana plants were transferred in climatic chamber: 25° C. day/18° C. night, photoperiod of 16 h light/8 h dark and 100% Relative Humidity. From 28 days to 56 days post inoculation (dpi) each banana plants is observed and the disease intensity severity (DSI: Disease Severity Index) is evaluated over time in order to determine the AUDPC (Area Under Disease Progress Curve)—Table 12, and the fungicidal efficacy expressed in percent of the untreated control—Table 13.

Honeybee [28] = assay: Ecotoxicity: honeybee, acute contact; format: in vivo
Excerpt: as §1

[29] = wheats and barley at 2 × 100 g/ha

Description for Cercospora kikushi: The trial is carried out in open field and no artificial inoculation is performed.
To test for fungicidal control against the late season disease, each plot (3 m×5 m) is sprayed with one of the treatments from Table 17. Each treatment is made of 4 replicates.
Three applications are made, the first approximately 14 days before flowering followed by a second one at R1 and the third at R1+14 days. A fourth application is considered based on the development of the disease.
Assessments are done before all sprays and at 7, 14 and 21 days after the last spray. The whole plot is assessed considering the 3 plant parts (bottom, mid and upper). The final grade is the mean of the 3 scores (bottom, mid and upper).
The whole plot is assessed for defoliation. The defoliation assessment takes place at R6-R7 stage when the untreated control reaches 80 to 90% defoliation. The harvest assessment is done from the middle of the plot covering at least 8 m 2/plot.
Description for Ramularia areola: The objective of the trial is to assess the fungicidal effect of ADF-16 against Ramularia areola on cotton, compared to an untreated control and a reference product.
ADF-16 is tested at different doses, namely at 50, 100, 150 and 200 g ai/ha as depicted in the table below.
Ramularia areola is artificially inoculated by spraying the conidia on the plants, previously sprayed with the fungicide.
To test for fungicidal control of Ramularia areola, the cotton plants, grown in pots, are sprayed at first true leaf fully open with each of the above treatments. 5 pots with 3 cotton plants each are considered, each treatment counts for 4 replicates.
Between 25 and 30 days from the inoculation the severity (%) of the infection is assessed.

SMILES: Cc1ccc(S(=O)(=O)n2cc(F)c(=N)n(C)c2=O)cc1 [compound of formula I, 5-fluoro-4-imino-3-methyl-1-tosyl-3,4-dihydropyrimidin-2(1H)-one]
- LD50 (Honeybee [1]): LD50 = 16.0 μg/bee/d
- NOED (Rabbit): NOED = 15 mg/kg bw/d
- Risk at current use pattern (Rabbit; [29]): Acceptable
- NOEC (Honeybee [2]): NOEC > 250 mg/kg diet
- Risk at current use pattern (Honeybee [2]; [29]): Acceptable
- LD50 (Honeybee [3]): LD50 > 3.727 μg/bee
- ER50 (Ryegrass [4]): ER50 > 189 g/ha
- Risk at current use pattern (Ryegrass [4]; [29]): Acceptable
- ER50 (Common oat [5]): ER50 > 189 g/ha
- Risk at current use pattern (Common oat [5]; [29]): Acceptable
- ER50 (Sunflower [6]): ER50 > 189 g/ha
- Risk at current use pattern (Sunflower [6]; [29]): Acceptable
- ER50 (Oil seed rape [7]): ER50 > 189 g/ha
- Risk at current use pattern (Oil seed rape [7]; [29]): Acceptable
- ER50 (Maize [8]): ER50 > 189 g/ha
- Risk at current use pattern (Maize [8]; [29]): Acceptable
- ER50 (Soybean [9]): ER50 > 189 g/ha
- Risk at current use pattern (Soybean [9]; [29]): Acceptable
- ER50 (Sugar beet [10]): ER50 > 189 g/ha
- Risk at current use pattern (Sugar beet [10]; [29]): Acceptable
- ER50 (Onion [11]): ER50 > 189 g/ha
- Risk at current use pattern (Onion [11]; [29]): Acceptable
- ER50 (Carrot [12]): ER50 > 189 g/ha
- Risk at current use pattern (Carrot [12]; [29]): Acceptable
- ER50 (Cucumber [13]): ER50 > 189 g/ha
- Risk at current use pattern (Cucumber [13]; [29]): Acceptable
- control versus reference treatment (Phytophtora infestans): significant better control than the reference treatment
- Risk at current use pattern (Green alga): Acceptable
- EC50 [14]: > 10 mg/L
- control of Ramularia areola (Ramularia areola; cotton, 50-200 g ai/ha): effectively controls
- phytotoxicity (Ramularia areola; in vivo): no significant phytotoxicity
- ER50 (Ryegrass [15]): ER50 > 189 g/ha
- Risk at current use pattern (Ryegrass [15]; [29]): Acceptable
- ER50 (Common oat [16]): ER50 > 189 g/ha
- Risk at current use pattern (Common oat [16]; [29]): Acceptable
- ER50 (Sunflower [17]): ER50 > 189 g/ha
- Risk at current use pattern (Sunflower [17]; [29]): Acceptable
- ER50 (Oil seed rape [18]): ER50 > 189 g/ha
- Risk at current use pattern (Oil seed rape [18]; [29]): Acceptable
- ER50 (Maize [19]): ER50 > 189 g/ha
- Risk at current use pattern (Maize [19]; [29]): Acceptable
- ER50 (Soybean [20]): ER50 > 189 g/ha
- Risk at current use pattern (Soybean [20]; [29]): Acceptable
- ER50 (Sugar beet [21]): ER50 > 189 g/ha
- Risk at current use pattern (Sugar beet [21]; [29]): Acceptable
- ER50 (Onion [22]): ER50 > 189 g/ha
- Risk at current use pattern (Onion [22]; [29]): Acceptable
- ER50 (Carrot [23]): ER50 > 189 g/ha
- Risk at current use pattern (Carrot [23]; [29]): Acceptable
- ER50 (Cucumber [24]): ER50 > 189 g/ha
- Risk at current use pattern (Cucumber [24]; [29]): Acceptable
- control of Colletotrichum dematium var. truncatum [25]: effectively controls
- LD50 (Bobwhite quail [26]): LD50 > 2000 mg/kg bw
- NOEC (Rainbow trout): NOEC = 0.128 mg/L
- Risk at current use pattern (Rainbow trout; [29]): Acceptable
- NOED (Bobwhite quail [27]): NOED > 67.8 mg/kg bw/d
- Risk at current use pattern (Bobwhite quail [27]; [29]): Acceptable
- phytotoxicity (Cercospora kikushi; in vivo): no significant phytotoxicity
- control of Cercospora kikushi (Cercospora kikushi; soybean, 50, 100 and 200 g ai/ha): effectively controls
- LD50 (Rat): LD50 > 2000 mg/kg bw
- Risk at current use pattern (Rat; [29]): Acceptable
- control of Mycosphaerella fijiensis in banana (conclusion) (M. fijiensis): efficiently controlling
- LD50 (Honeybee [28]): LD50 > 50 μg/bee

— US20240172750A1, “5-Fluoro-4-Imino-3-Methyl-1-Tosyl-3,4-Dihydropyrimidin-2(1H)-One for Controlling Plant Diseases” (Adama Makhteshim Ltd., priority 2021, published 2024)
